Eight compounds from patent US7361685B2, “Compounds for use in the treatment of skin conditions” (Oregon Health & Science University, priority 2001, dated 2008) can be followed below.

The test system of assay [1] is melan-a cells. As to the kind of experiment: Dendricity of melan-a cells by observation under microscope. Further details: key to Dendricity of RV-A08: +++: highly dendiitic; ++: moderately dendritic; +: weakly dendritic; key to Dentricity of RV-A07 / Dendricity of RV-A09 / Dendricity of RV-A10 / Dendricity: +++: highly dendritic; ++: moderately dendritic; +: weakly dendritic; −: no effect. Type of assay: cell-based, mouse. From the text:
Effect on dendricity of melan-a cells by the test compounds was by observation under microscope. Dendricity is relevant to vitiligo since normal skin melanocytes have dendrites, but in vitiligo the melanocytes seem to lose these before they disappear from the patches.

Assay [2] relates to mouse melan-a cell line. As to the kind of experiment: Microplate culture and sulforhodamine B (SRB) proliferation assay, melan-a melanocytes. Type of assay: cell-based. The method, then:
A supplemental growth medium of 10% foetal bovine serum (FBS) was added to the […] microtiter plates. The plates were incubated at 37° C. in a 10% CO2, 90% air humidified atmosphere for 4 days. At the end of the incubation, an SRB assay was performed. Briefly, cells attached to the bottom of the plate were fixed by addition of cold trichloroacetic acid (TCA, 4° C., Aldrich, Dorset, UK) on the top of the growth medium (final TCA 20% w/v). The plate was placed at 4° C. for 1 hour before being gently washed five times with tap water. It was allowed to dry in air, or aided with a hair dryer to speed up the drying process, then 50 μl of […] SRB dissolved in 1% acetic acid in water was added to each well for 30 min. At the end of the staining period, unbound SRB was removed by washing 4 times with 1% acetic acid. The plate was air dried again, and 150 μl of 10 mM aqueous Tris base (Sigma-Aldrich Co. Ltd, Irvine, UK) was added into each well to solubilize the cell-bound dye. […] A control assay was carried out on cells incubated without test compound. There were 2 or 3 series of experiments, each of which consisted of six replicate experiments.
Various compounds of formula (1) were synthesised and tested for melanocyte (mouse melan-a) proliferant activity in-vitro. Cells were incubated with the test compound for 4 days, as described above.
Percentage cell growth was obtained with a given compound calculated as (optical density in the presence of the compound/control optical density)×100.
Melan-a cell proliferant activity for tested compounds was compared with that obtained with piperine. […] All figures are given with Standard Error of the Mean.
(Sulforhodamine B stains cellular protein and so reports cell mass.)

Several values for one entry are separate records, joined by “and”; a condition that tells them apart may be missing. Identical values can stand only once.

For the compound `O=C(/C=C/C=C/c1ccc2c(c1)OCO2)NC1CCCCC1` [RV-A10, 5-E,E-piperinoyl cyclohexylamine], the “Dendricity of RV-A10” value in assay [1] (10 μM) is “+++”; in assay [1] (50 μM) it was “++”. Besides, the Percentage cell growth in assay [2] (1 μM, 4 days, ± SEM) is reported as 301 ± 20**□ %; in assay [2] (10 μM, 4 days, ± SEM), 308 ± 29 %; in assay [2] (50 μM, 4 days, ± SEM), 155 ± 22**□ %; in assay [2] (100 μM, 4 days, ± SEM), 100 ± 13%. Besides, in assay [2] (10 μM), the Stimulant activity result is on record as “Positive”.
Turning to `CNC(=O)/C=C/C=C/c1ccc2c(c1)OCO2` [RV-A07, 5-E,E-piperinoylmethylamine], in assay [1] (10 μM), the “Dentricity of RV-A07” value was “++”. Besides, the Percentage cell growth in assay [2] (1 μM, 4 days, ± SEM) is reported as 140 ± 12 %; in assay [2] (10 μM, 4 days, ± SEM), 170 ± 24 %; in assay [2] (50 μM, 4 days, ± SEM), 71 ± 5%; in assay [2] (100 μM, 4 days, ± SEM), 46 ± 2%. The Stimulant activity entry in assay [2] (10 μM) is given as “Positive”.
Turning to “7-(3,4-methylenedioxy phenyl)-heptanoic acid piperidineamide [RV-C05]”, the Dendricity result in assay [1] (1 μM (tables RV-C04, RV-C05)) is listed as “+”; in assay [1] (10 μM (tables RV-C04, RV-C05)), “++”; in assay [1] (50 μM (tables RV-C04, RV-C05)), “++”; in assay [1] (100 μM (tables RV-C04, RV-C05)), “+”. Further, the Percentage cell growth in assay [2] (1 μM, 4 days, ± SEM) is listed as 118 ± 1%; in assay [2] (10 μM, 4 days, ± SEM), 160 ± 5**♦ %; in assay [2] (50 μM, 4 days, ± SEM) it was 158 ± 19 %; in assay [2] (100 μM, 4 days, ± SEM), 113 ± 15%.
For the compound `O=C(/C=C/C=C/c1ccc2c(c1)OCO2)N1CCOCC1` [RV-A02, 5-E,E-piperinoyl morpholine], the Percentage cell growth was 125 ± 10% in assay [2] (1 μM, 4 days, ± SEM); 167 ± 17 % in assay [2] (10 μM, 4 days, ± SEM); 171 ± 8 % in assay [2] (25 μM, 4 days, ± SEM); 168 ± 12**□ % in assay [2] (50 μM, 4 days, ± SEM). In addition, the Stimulant activity result in assay [2] (10 μM) is “Positive”. Also, in assay [2] (10 μM test compound, 4 days, OD vs control x100, ± SEM), the “Percentage cell growth (Repeated experiments) Test cpd.” value was 156 ± 58% and 187 ± 40% and 153 ± 19%.
Consider `O=C(CCCCc1ccc2c(c1)OCO2)NC1CCCCC1` [RV-C04, 5-(3,4-methylenedioxyphenyl)-pentanoic acid cyclohexylamide], for which the Dendricity entry in assay [1] (1 μM (tables RV-C04, RV-C05)) was “+”; in assay [1] (10 μM (tables RV-C04, RV-C05)) it was “+++”; in assay [1] (50 μM (tables RV-C04, RV-C05)), “+++”; in assay [1] (100 μM (tables RV-C04, RV-C05)), “+++”. Besides, the Percentage cell growth in assay [2] (1 μM, 4 days, ± SEM) was 129 ± 6 %; in assay [2] (10 μM, 4 days, ± SEM), 192 ± 6 %; in assay [2] (50 μM, 4 days, ± SEM), 192 ± 10 %; in assay [2] (100 μM, 4 days, ± SEM), 191 ± 12 %.
With `CCNC(=O)/C=C/C=C/c1ccc2c(c1)OCO2` [RV-A08], in assay [1] (10 μM), the “Dendricity of RV-A08” value is listed as “+++”. For the same compound, the Percentage cell growth in assay [2] (1 μM, 4 days, ± SEM) is 139 ± 27 %; in assay [2] (10 μM, 4 days, ± SEM), 200 ± 14 %; in assay [2] (50 μM, 4 days, ± SEM) it was 81 ± 12%; in assay [2] (100 μM, 4 days, ± SEM), 62 ± 13%. Further, the Stimulant activity result in assay [2] (10 μM) is reported as “Positive”.
Turning to `CC(C)NC(=O)/C=C/C=C/c1ccc2c(c1)OCO2` [RV-A09, 5-E,E-piperinoylisopropylamine], in assay [1] (10 μM), the “Dendricity of RV-A09” value is reported as “+++”. The Percentage cell growth in assay [2] (1 μM, 4 days, ± SEM) is 187 ± 15 %; in assay [2] (10 μM, 4 days, ± SEM) it was 224 ± 19 %; in assay [2] (50 μM, 4 days, ± SEM) it was 85 ± 5%; in assay [2] (100 μM, 4 days, ± SEM), 42 ± 6%. Moreover, the Stimulant activity result in assay [2] (10 μM) is recorded as “Positive”.
`O=C(/C=C/C=C/c1ccc2c(c1)OCO2)N1CCCCC1` [Piperine, reference compound]: the Percentage cell growth in assay [2] (1 μM, 4 days, ± SEM) was 147 ± 11**♦ % and 211 ± 16**♦ % and 216 ± 14**♦ % and 221 ± 17**♦ % and 236 ± 30 % and 191 ± 12**♦ % and 161 ± 13 %; in assay [2] (10 μM, 4 days, ± SEM) it was 192 ± 13**♦ % and 216 ± 33 % and 236 ± 17 % and 263 ± 16 % and 302 ± 17 % and 216 ± 18 % and 192 ± 2**♦ %; in assay [2] (25 μM, 4 days, ± SEM), 167 ± 19 %. Further, in assay [2] (10 μM piperine run alongside the test compound, 4 days, ± SEM), the “Percentage cell growth (Repeated experiments) Piperine” value was 236 ± 17% and 263 + 16** % and 302 ± 17 % and 210 ± 65% and 170 ± 22% and 155 ± 19% and 216 ± 33 %.
